According to US9206130B2, “Quinoline derivatives as AXL kinase inhibitors” (Max-Planck-Gesellschaft zur Förderung der Wissenschaften …, priority 2008, dated 2015):

How the values were obtained:
[1] = target: T1, wild type AXL (wtAXL) receptor tyrosine kinase (Homo sapiens, UniProt P30530); assay: NIH-3T3-AXL cellular tyrosine kinase assay (inhibition of AXL phosphorylation); type: cell-based; conditions: AXL phosphorylation in NIH-3T3-AXL (clone 22) cells, serum-depleted, 2 h with compound, immunoprecipitation / anti-phosphotyrosine blot
T1 construct: WtAXL cDNA was cloned into vector pLXSN(ESK) and transfected into Phoenix E packaging cells; expressed in transfected cells; host or cells: NIH3T3 N7 mouse fibroblasts, retrovirally infected (clone 22)
T1 sequence (P30530 26-894): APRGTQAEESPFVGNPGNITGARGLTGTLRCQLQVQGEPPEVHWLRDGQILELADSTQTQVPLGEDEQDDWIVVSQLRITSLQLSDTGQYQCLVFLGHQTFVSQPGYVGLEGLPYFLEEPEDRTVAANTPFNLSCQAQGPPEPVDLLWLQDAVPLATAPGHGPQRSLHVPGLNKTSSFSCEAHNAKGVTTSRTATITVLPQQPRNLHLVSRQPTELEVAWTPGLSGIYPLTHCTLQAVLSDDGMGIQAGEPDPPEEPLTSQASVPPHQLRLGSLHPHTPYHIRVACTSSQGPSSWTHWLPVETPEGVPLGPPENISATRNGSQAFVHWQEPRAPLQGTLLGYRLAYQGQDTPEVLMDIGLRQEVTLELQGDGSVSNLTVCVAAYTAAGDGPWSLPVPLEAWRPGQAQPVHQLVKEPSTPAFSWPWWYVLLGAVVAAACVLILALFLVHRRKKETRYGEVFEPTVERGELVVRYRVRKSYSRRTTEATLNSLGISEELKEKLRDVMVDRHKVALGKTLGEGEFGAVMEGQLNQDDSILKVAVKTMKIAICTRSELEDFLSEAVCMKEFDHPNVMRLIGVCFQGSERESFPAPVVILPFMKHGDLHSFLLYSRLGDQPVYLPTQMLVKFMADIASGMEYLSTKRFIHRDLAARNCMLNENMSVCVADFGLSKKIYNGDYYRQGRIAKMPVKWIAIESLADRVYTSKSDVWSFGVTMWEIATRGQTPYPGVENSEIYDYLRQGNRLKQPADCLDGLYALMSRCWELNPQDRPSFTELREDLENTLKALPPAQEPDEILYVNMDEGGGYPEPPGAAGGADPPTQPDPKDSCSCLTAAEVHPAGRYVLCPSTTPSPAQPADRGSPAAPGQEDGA
Summary of the method: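 NIH3T3 clones stably expressing human wtAXL (puromycin-selected) were exposed to serially diluted compounds for 2 h. AXL was immunoprecipitated from lysates with anti-AXL antibody, and phosphorylation detected by anti-phosphotyrosine (4G10) western blot with ECL.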

IC50 [1] [µM]	melting point [°C]	SMILES
> 3	227 to 229	COc1cc2nccc(Oc3ccc(NS(=O)(=O)c4ccc(Br)cc4OC(F)(F)F)c(F)c3)c2cc1OC [Example A147, 4-Bromo-N-[4-(6,7-dimethoxy-quinolin-4-yloxy)-2-fluoro-phenyl]-2-trifluoromethoxy-benzenesulfonamide]
> 10	176 to 177	COc1cc2nccc(Oc3ccc(NS(=O)(=O)c4ccc(Br)cc4OC(F)(F)F)cc3OC)c2cc1OC [Example A148, 4-Bromo-N-[4-(6,7-dimethoxy-quinolin-4-yloxy)-3-methoxy-phenyl]-2-trifluoromethoxy-benzenesulfonamide]
> 3	237 to 239	COc1cc2nccc(Oc3ccc(NS(=O)(=O)c4ccc(Br)cc4OC(F)(F)F)cc3)c2cc1OC [Example A149, 4-Bromo-N-[4-(6,7-dimethoxy-quinolin-4-yloxy)-phenyl]-2-trifluoromethoxy-benzenesulfonamide]
> 10	216 to 217	COc1cc2nccc(Oc3ccc(NS(=O)(=O)c4ccc(OC)c5ccccc45)c(C)c3)c2cc1OC [Example A150, 4-Methoxy-naphthalene-1-sulfonic acid [4-(6,7-dimethoxy-quinolin-4-yloxy)-2-methyl-phenyl]-amide]
> 10	259 to 260	COc1cc2nccc(Oc3ccc(NS(=O)(=O)c4cc(F)ccc4F)c(C)c3)c2cc1OC [Example A151, N-[4-(6,7-Dimethoxy-quinolin-4-yloxy)-2-methyl-phenyl]-2,5-difluoro-benzenesulfonamide]
> 10	212 to 213	COc1cc2nccc(Oc3ccc(NS(=O)(=O)c4ccc(Br)c(Cl)c4)c(C)c3)c2cc1OC [Example A152, 4-Bromo-3-chloro-N-[4-(6,7-dimethoxy-quinolin-4-yloxy)-2-methyl-phenyl]-benzenesulfonamide]
> 10	248 to 250	COc1cc2nccc(Oc3ccc(NS(=O)(=O)c4ccc(Cl)cc4F)c(C)c3)c2cc1OC [Example A153, 4-Chloro-N-[4-(6,7-dimethoxy-quinolin-4-yloxy)-2-methyl-phenyl]-2-fluoro-benzenesulfonamide]
> 10	228 to 229	COc1cc(S(=O)(=O)Nc2ccc(Oc3ccnc4cc(OC)c(OC)cc34)cc2C)ccc1F [Example A154, N-[4-(6,7-Dimethoxy-quinolin-4-yloxy)-2-methyl-phenyl]-4-fluoro-3-methoxy-benzenesulfonamide]
> 3	> 260	COc1cc2nccc(Oc3ccc(NS(=O)(=O)c4cc(Cl)c(O)c(Cl)c4)cc3)c2cc1OC [Example A155, 3,5-Dichloro-N-[4-(6,7-dimethoxy-quinolin-4-yloxy)-phenyl]-4-hydroxy-benzenesulfonamide]
> 1	> 240	COc1cc2nccc(Oc3ccc(NS(=O)(=O)c4cc(Cl)cc(Cl)c4O)cc3OC)c2cc1OC [Example A156, 3,5-Dichloro-N-[4-(6,7-dimethoxy-quinolin-4-yloxy)-3-methoxy-phenyl]-2-hydroxy-benzenesulfonamide]
> 10	166 to 167	Cc1cc(Oc2ccc(NS(=O)(=O)c3cccs3)c(F)c2)c2cc(F)ccc2n1 [Example B1, Thiophene-2-sulfonic acid [2-fluoro-4-(6-fluoro-2-methyl-quinolin-4-yloxy)-phenyl]-amide]
> 10	190 to 191	Cc1cc(Oc2ccc(NS(=O)(=O)c3cccc(C#N)c3)c(F)c2)c2cc(F)ccc2n1 [Example B2, 3-Cyano-N-[2-fluoro-4-(6-fluoro-2-methyl-quinolin-4-yloxy)-phenyl]-benzenesulfonamide]
8	150 to 151	COc1cccc(S(=O)(=O)Nc2ccc(Oc3cc(C)nc4ccc(F)cc34)cc2F)c1 [Example B3, N-[2-Fluoro-4-(6-fluoro-2-methyl-quinolin-4-yloxy)-phenyl]-3-methoxy-benzenesulfonamide]
> 10	189 to 190	Cc1cc(Oc2ccc(NS(=O)(=O)C3CC3)c(F)c2)c2cc(F)ccc2n1 [Example B4, Cyclopropanesulfonic acid [2-fluoro-4-(6-fluoro-2-methyl-quinolin-4-yloxy)-phenyl]-amide]
> 10	205 to 207	Cc1cc(Oc2ccc(NS(=O)(=O)c3ccc(F)c(Cl)c3)c(F)c2)c2cc(F)ccc2n1 [Example B5, 3-Chloro-4-fluoro-N-[2-fluoro-4-(6-fluoro-2-methyl-quinolin-4-yloxy)-phenyl]-benzenesulfonamide]
> 10	188 to 190	Cc1cc(Oc2ccc(NS(=O)(=O)c3c(F)cccc3F)c(F)c2)c2cc(F)ccc2n1 [Example B6, 2,6-Difluoro-N-[2-fluoro-4-(6-fluoro-2-methyl-quinolin-4-yloxy)-phenyl]-benzenesulfonamide]
> 10	151 to 153	Cc1cc(Oc2ccc(NS(=O)(=O)c3ccc(C)s3)c(F)c2)c2cc(F)ccc2n1 [Example B7, 5-Methyl-thiophene-2-sulfonic acid [2-fluoro-4-(6-fluoro-2-methyl-quinolin-4-yloxy)-phenyl]-amide]
> 10	150 to 152	Cc1cc(Oc2ccc(NS(=O)(=O)c3cccc(C(F)(F)F)c3)c(F)c2)c2cc(F)ccc2n1 [Example B8, N-[2-Fluoro-4-(6-fluoro-2-methyl-quinolin-4-yloxy)-phenyl]-3-trifluoromethyl-benzenesulfonamide]
> 10	207 to 208	Cc1cc(Oc2ccc(NS(=O)(=O)c3ccccc3)cc2)c2cc(F)ccc2n1 [Example B9, N-[4-(6-Fluoro-2-methyl-quinolin-4-yloxy)-phenyl]-benzenesulfonamide]
> 10	238 to 240	Cc1cc(Oc2ccc(NS(=O)(=O)c3cc(Cl)cc(Cl)c3)cc2)c2cc(F)ccc2n1 [Example B10, 3,5-Dichloro-N-[4-(6-fluoro-2-methyl-quinolin-4-yloxy)-phenyl]-benzenesulfonamide]
< 1	192 to 193	COc1c(Cl)cc(Cl)cc1S(=O)(=O)Nc1ccc(Oc2cc(C)nc3ccc(F)cc23)cc1 [Example B11, 3,5-Dichloro-N-[4-(6-fluoro-2-methyl-quinolin-4-yloxy)-phenyl]-2-methoxy-benzenesulfonamide]
> 10	179 to 180	Cc1cc(Oc2ccc(NS(=O)(=O)c3ccc(F)cc3F)cc2)c2cc(F)ccc2n1 [Example B12, 2,4-Difluoro-N-[4-(6-fluoro-2-methyl-quinolin-4-yloxy)-phenyl]-benzenesulfonamide]
< 1	194 to 195	Cc1cc(Oc2ccc(NS(=O)(=O)c3cc(F)cc(F)c3)cc2)c2cc(F)ccc2n1 [Example B13, 3,5-Difluoro-N-[4-(6-fluoro-2-methyl-quinolin-4-yloxy)-phenyl]-benzenesulfonamid]
< 1	183 to 184	Cc1cc(Oc2ccc(NS(=O)(=O)c3cccc(Br)c3)cc2)c2cc(F)ccc2n1 [Example B14, 3-Bromo-N-[4-(6-fluoro-2-methyl-quinolin-4-yloxy)-phenyl]-benzenesulfonamide]
> 10	191 to 193	Cc1cc(Oc2ccc(NS(=O)(=O)c3ccc(Br)cc3C(F)(F)F)cc2)c2cc(F)ccc2n1 [Example B15, 4-Bromo-N-[4-(6-fluoro-2-methyl-quinolin-4-yloxy)-phenyl]-2-trifluoromethyl-benzenesulfonamide]
> 10	195 to 196	Cc1cc(Oc2ccc(NS(=O)(=O)c3ccsc3)cc2)c2cc(F)ccc2n1 [Example B16, Thiophene-3-sulfonic acid [4-(6-fluoro-2-methyl-quinolin-4-yloxy)-phenyl]-amide]
> 10	160 to 161	COC(=O)c1sccc1S(=O)(=O)Nc1ccc(Oc2cc(C)nc3ccc(F)cc23)cc1 [Example B17, 3-[4-(6-Fluoro-2-methyl-quinolin-4-yloxy)-phenylsulfamoyl]-thiophene-2-carboxylic acid methyl ester]
